Usually EC50 stands for the midpoint of the concentration-response curve. Low readings indicate a more potent agent, high ones a less potent agent.

This assay relates to YAP/TAZ-TEAD transcription. Nature of the assay: Reporter gene assay for measuring the inhibition of YAP/TAZ-TEAD transcription (TEAD-responsive element luciferase reporter in Hek293T cells). The assay is classed as cell-based. Conditions: Hek293T cells transiently transfected with TEAD-responsive element luciferase reporter, 24 hours incubation. The method in brief: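 Hek293T cells transiently transfected with TEAD-responsive luciferase reporter, exposed to compound for 24 h at 37° C/5% CO2, then read by luminescence. Percent inhibition normalized to vehicle (0%) and positive control inhibitor (100%); EC50 reported as activity ranges.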

For the compound `C=CC(=O)NCC1CN(c2ccc(C(F)(F)F)c(F)c2)c2ccnn2C1` (single isomer, unassigned) [Cpd. No. 015-En2, (R)- or (S)-N-((4-(3-fluoro-4-(trifluoromethyl)phenyl)-4,5,6,7-tetrahydropyrazolo[1,5-a]pyrimidin-6-yl)methyl)acrylamide], the EC50 was below 1000 nM.
On the same count and under the same terms, for `CCC(=O)NCC1CN(c2ccc(C(F)(F)F)cc2)c2ccnn2C1` (single isomer, unassigned) [Cpd. No. 028-En2, (R)- or (S)-N-((4-(4-(trifluoromethyl)phenyl)-4,5,6,7-tetrahydropyrazolo[1,5-a]pyrimidin-6-yl)methyl)propionamide] the value was below 1000 nM.
On the same count and under the same terms, the value for `C=CC(=O)NC1CN(c2ccc(C(F)(F)F)cc2)c2ccnn2C1` (single isomer, unassigned) [Cpd. No. 061-En2, (R)- or (S)-N-(4-(4-(trifluoromethyl)phenyl)-4,5,6,7-tetrahydropyrazolo[1,5-a]pyrimidin-6-yl)acrylamide] was below 1000 nM.
With `C=CC(=O)NCC1CN(c2ccc(OC(F)(F)F)cc2)c2cc(C)nn2C1` (stereo not drawn) [Cpd. No. 030, N-((2-methyl-4-(4-(trifluoromethoxy)phenyl)-4,5,6,7-tetrahydropyrazolo[1,5-a]pyrimidin-6-yl)methyl)acrylamide], the EC50 (Homo sapiens, HEK-293T, 24 h) is below 1000 nM.
As to `C=CC(=O)NCC1CN(c2ccc(C(F)(F)F)c(F)c2)c2ccnn2C1` (single isomer, unassigned) [Cpd. No. 015-En1, (R)- or (S)-N-((4-(3-fluoro-4-(trifluoromethyl)phenyl)-4,5,6,7-tetrahydropyrazolo[1,5-a]pyrimidin-6-yl)methyl)acrylamide], the EC50 is below 1000 nM.
In the case of `CCC(=O)NCC1CN(c2ccc(C(F)(F)F)cc2)c2ccnn2C1` (single isomer, unassigned) [Cpd. No. 028-En1, (R)- or (S)-N-((4-(4-(trifluoromethyl)phenyl)-4,5,6,7-tetrahydropyrazolo[1,5-a]pyrimidin-6-yl)methyl)propionamide], the EC50 was above 20000 nM.
Still for that read-out and setting: for `C=CC(=O)NCC1CN(c2ccc(Cl)cc2)c2ccnn2C1` (single isomer, unassigned) [Cpd. No. 005-En1, (R)- or (S)-N-((4-(4-chlorophenyl)-4,5,6,7-tetrahydropyrazolo[1,5-a]pyrimidin-6-yl)methyl)acrylamide] the value was below 1000 nM; for `C=CC(=O)NCC1CN(c2ccc(C(F)F)nc2)c2ccnn2C1` (single isomer, unassigned) [Cpd. No. 010-En1, (R)- or (S)-N-((4-(6-(difluoromethyl)pyridin-3-yl)-4,5,6,7-tetrahydropyrazolo[1,5-a]pyrimidin-6-yl)methyl)acrylamide], above 20000 nM; for `C=CC(=O)NCC1CN(c2ccc(C(F)(F)F)cc2)c2cc(C#N)nn2C1` (single isomer, unassigned) [Cpd. No. 033-En2, (R)- or (S)-N-((2-cyano-4-(4-(trifluoromethyl)phenyl)-4,5,6,7-tetrahydropyrazolo[1,5-a]pyrimidin-6-yl)methyl)acrylamide], below 1000 nM.
In turn, `C[C@H](NC(=O)NCC1CN(c2ccc(C(F)(F)F)cc2)c2ccnn2C1)c1ccccn1` (stereo partly drawn) [Cpd. No. 091, 1-((S)-1-(pyridin-2-yl)ethyl)-3-((4-(4-(trifluoromethyl)phenyl)-4,5,6,7-tetrahydropyrazolo[1,5-a]pyrimidin-6-yl)methyl)urea] had a 50% effective concentration (EC50) (Homo sapiens, HEK-293T, 24 h) above 20000 nM.
On the same count and under the same terms, the value for `C=CC(=O)NCC1CN(c2ccc(C(F)(F)F)cc2)c2cc(C#N)nn2C1` (stereo not drawn) [Cpd. No. 033, N-((2-cyano-4-(4-(trifluoromethyl)phenyl)-4,5,6,7-tetrahydropyrazolo[1,5-a]pyrimidin-6-yl)methyl)acrylamide] was below 1000 nM; that for `CN(C)C/C=C/C(=O)NCC1CN(c2ccc(C(F)(F)F)cc2)c2ccnn2C1` (stereo not drawn) [Cpd. No. 041, (E)-4-(dimethylamino)-N-((4-(4-(trifluoromethyl)phenyl)-4,5,6,7-tetrahydropyrazolo[1,5-a]pyrimidin-6-yl)methyl)but-2-enamide] was 1000 to 20000 nM.

(Values after patent US20230279016A1, “Tetrahydropyrazolopyrimidines and Related Analogs for Inhibiting YAP/TAZ-TEAD” (THE KATHOLIEKE UNIVERSITEIT LEUVEN, priority 2021, published 2023).)
